Assay results reported in patent US12383534B2, “Methods for treating cancer” (REGENTS OF THE UNIVERSITY OF MINNESOTA, priority 2021, dated 2025).

How the values were obtained:
[1] = test system: CIC-DUX4 target genes ETV1, 4, and 5; assay: RT-qPCR for CIC-DUX4 target genes in NCC-CDS-X1 cells; format: cell-based, human; settings: NCC-CDS-X1, 24 hours, 0.03 and 0.3 μM
Description: (§1) RNA was extracted using an RNA extraction kit (Zymo) and cDNA was made using 0.5 μg total RNA with oligo-dT primer and Verso cDNA Synthesis Kit (Thermo Scientific) following the manufacturer's instructions. qPCRs were performed by using Premix Ex Taq (Probe qPCR, Takara) or SYBR-green. Gene expression levels were normalized to that of GAPDH and analyzed with 7500 System Software using the ACT method (Applied Biosystems). RNA-seq library preparation was done with 500 ng total RNA from NCC-CDS-X1 cells treated for 4 or 24 hours with iP300w (0.3 μM) using the Swift Rapid RNA Library Kit (SwiftBioscience). 36 base paired-end sequencing was performed on an Illumina NextSeq instrument at the University of Minnesota Genomics Center.
Next, the effect of the stereoisomers on the CIC-DUX4 target genes in cells cultured with the compounds for 24 hours was analyzed.

[2] = test system: HTC116, MKN28, KATO3 colorectal cancer cells; assay: Cell viability (ATP) assay in colorectal cancer cells; format: cell-based; settings: serial dilutions, 48 hours
Description: (§2) Cell lines were plated in a 96 well dish (1×10^5 cells/well), and the following day were treated with iP300w or its stereoisomers. ATP assays were performed using CellTiter-Glo® Luminescent Cell Viability Assay (Promega) according to the manufacturer's instructions. Luminescence was analyzed on POLARstar Optima Microplate Reader (BMG Labtech, Offenburg, Germany).
(§3) Pancreatic and colorectal cancer cell lines were treated with iP300w to further distinguish its specificity to CDS from general cytotoxicity. p300/CBP have been correlated with the invasive and migratory properties of pancreatic and colorectal cancers (Iyer, N. G. et al., Proceedings of the National Academy of Sciences of the United States of America 101, 7386-7391 (2004); and Paladino, D. et al, Oncotarget 7, 7253-7267 (2016)). […] This further supports the specific efficacy of iP300w against cancers bearing p300-dependent oncogenic fusion transcription factors (such as CIC-DUX4), vis-à-vis cancers that may show some degree of growth inhibition by iP300w due simply to p300-dependent proliferative pathways.

[3] = as above; format: cell-based; settings: cancer and colorectal cell lines expected to have a general p300/CBP dependence
Description: as §2, §3

[4] = test system: Panc1, MiaPaca2, CFPac1 pancreatic cancer cells; assay: Cell viability (ATP) assay in pancreatic cancer cells; format: cell-based; settings: serial dilutions, 48 hours
Description: as §2, §3

[5] = test system: global H3K18 and H3K27 acetylation; assay: Western blot for H3 acetylation markers in Kitra-SRS cells; format: cell-based, human; settings: 18 hours
Description: For western blot analyses, cells were lysed with RIPA buffer supplemented with protease inhibitor cocktail (Complete, Roche), and proteins were separated on 10% SDS-PAGE gels, then transferred to PVDF membranes. Antibodies were diluted in 5% skim milk in TBST and incubated overnight at 4° C. or 1 hour at RT. An appropriate secondary HRP conjugated antibody was incubated for 1 hour at RT. Membranes were then washed with TBST, and signal was visualized using Pierce ECL western blotting substrate (Thermo Scientific). For immunofluorescence, cells cultured in 96 well plates were fixed in 4% PFA for 10 min., washed twice with PBS, permeabilized with 0.3% Triton X for 30 min, and blocked with 3% BSA for 1 hour at R/T. Primary antibodies were diluted in 3% BSA and incubated o/n at 4° C. An appropriate conjugated secondary antibody was applied for 60 min at RT. Nuclei were visualized using DAPI (1:5000, Sigma). […]

[6] = test system: Ewing sarcoma cell lines (AF573, TC71, A673); assay: Cell viability (ATP) assay in Ewing sarcoma cell lines; format: cell-based; settings: 0.003 and 0.03 μM, 48 hours
Description: as §2
To determine whether iP300w was particularly active against CDS cells, vis-à-vis other related cancer cell lines, viability of 3 different Ewing sarcoma (ES) cell lines and several different immortalized cell lines treated with iP300w were compared. […] Furthermore, gene expression analyses confirmed the specificity of iP300w to CDS.

[7] = test system: ETV1, 4, and 5 in 3T3-CIC-DUX4, C2C12-CIC-DUX4 and LHCN-CIC-DUX4 cell lines; assay: RT-qPCR for CIC-DUX4 target genes in cell lines overexpressing CIC-DUX4; format: cell-based, mouse and human; settings: each CIC-DUX4 overexpressing cell line, 18 hours
Description: Viral supernatants were produced in 293T cells. For transducing mouse cells (3T3 and C2C12), the CIC-DUX4 expression vector was packed with pCL-Eco, and for infecting human cells (293T, LHCN-M2) with psPAX2 and pMD2.G using FUGENE 6 (Roche). Viral supernatant was collected at 48 hours and 72 hours post-transfection and applied to the cells. Two days post-infection GFP positive cells were sorted using a BD FACSAria II. Established cell lines were tested for CIC-DUX4 expression by immunofluorescence and RT-qPCR.
as §1, with “Center. […]” for “Center.”

CNC(=O)Cn1cc(-c2ccc3c(c2)[C@H](F)C[C@]32NC(=O)N(CC(=O)N(Cc3ccc(F)cc3)[C@@H](C)C(F)(F)F)C2=O)cn1 (single isomer, unassigned) [iP300w]
down-regulation of direct CIC-DUX4 targets ETV1, 4, and 5 [1]: Significant down-regulation | effect on cell viability [2]: no significant effect on cell viability | concentration at which growth inhibition is first observed [3]: ≥ 0.3 µM | effect on cell viability [4]: no significant effect on cell viability | effect on global H3K18 and H3K27 acetylation [5]: reduces global H3K18 and H3K27 acetylation | effect on cell viability [6]: only effective for CIC-DUX4 driven sarcomas and not for the other cell lines | effect on CIC-DUX4-induced ETV1, 4, and 5 [7]: reversible
